Laboratory results from publication PMC9026348, “Investigation of Direct and Retro Chromone-2-Carboxamides Based Analogs of Pseudomonas aeruginosa Quorum Sensing Signal as New Anti-Biofilm Agents” (Pharmaceuticals, 2022).

Legend:
[1] = system: P. aeruginosa PAO1 biofilms; test: Anti-biofilm assay, CFU count of adherent cells; type: cell-based, Pseudomonas aeruginosa PAO1; conditions: PAO1, 48 h, relative to untreated control, mean ± SD of 3 independent experiments; for inhibition at 50 µM: Pseudomonas aeruginosa
Protocol: The effect of all compounds was evaluated on PAO1 biofilms, grown in 24-well microplates. The antibiofilm assay used in this study is based on a low nutritive culture medium, a rather weak inoculum (10^2 CFU/mL), and a regular renewal of the culture medium (at 2, 4, 6, 20, and 24 h), in order to promote the growth of adhered cells as biofilm, instead of the growth and/or sedimentation of planktonic cells. Since the QS systems are involved in early steps of biofilm formation, compounds were added at t0. After incubation, viable cells were quantified by CFU plate counts.
The rather low concentration of 50 µM used was set up according to detected concentrations of QS molecules in CF patients’ lungs. […] For all compounds, MICs/MBCs were higher than 500 µM. To be considered active, a threshold of 50% inhibition, relative to the untreated control, was applied.
Pseudomonas aeruginosa PAO1 was obtained from the Institute Pasteur Collection (CIP 104116, Paris, France), frozen and kept at -80 °C in a 20% (v/v) glycerol stock solution. Before each experiment, two successive subcultures were prepared on trypticase soy agar and incubated for 24 h under aerobic conditions at 37 °C. Before each experiment, bacterial suspensions of 10^8 CFU/mL were prepared by adjusting OD at 640 nm to 0.150.
The bacterial enumerations were done on trypticase soy agar. The minimum biofilm broth used for biofilm formation (MBB) was prepared in sterile distilled water (SDW) and was composed of MgSO4·7H2O (0.02 g/L), FeSO4·7H2O (0.5 mg/L), Na2HPO4 (1.25 g/L), KH2PO4 (0.5 g/L), (NH4)2SO4 (0.1 g/L), and glucose (0.05 g/L) from Merck-Sigma (France).
The enumeration of adhered bacteria was carried-out according to Campanac et al. with some modifications. P. aeruginosa biofilms were grown in a 24-wells microtiter plate for 48 h. The culture medium was composed of BBM 2X (1.0 mL) and 1.0 mL of a 10^−4 M solution of tested compound dissolved in SDW (final concentration 50 µM). After inoculation with 100 µL of a 10^2 CFU/mL bacterial suspension of P. aeruginosa PAO1 (final inoculum 10 CFU/well), the microtiter plate was incubated à 37 °C. After 2 h, 4 h, 6 h, 20 h and 24 h of incubation, each well was emptied, rinsed twice with SDW, and the culture medium was renewed. After 48 h of culture, the biofilm was rinsed twice with 2.0 mL SDW. The bottom of each well was scraped with a sterile spatula and suspended in 1.0 mL of SDW. The content of each well was diluted by serial dilutions in test tubes. After inclusion of 0.9 mL of each dilution in trypticase soy agar, Petri dishes were incubated for 48 h at 37 °C. The number of colony forming units (CFUs) was counted and the inhibition percentage calculated using the following formula: Inhibition(%)=Adhered cellsControl(CFU/mL)−Adhered cellsSample(CFU/mL) /Adhered cellsControl×100

O=C(Nc1ccccc1)c1cc(=O)c2ccccc2o1 [3a, 4-Oxo-N-phenyl-4H-chromene-2-carboxamide]
inhibition at 50 µM [1]: 21.4 ± 17% | melting point: 229 °C

Cc1ccc(NC(=O)c2cc(=O)c3ccccc3o2)cc1 [3b, 4-Oxo-N-(p-tolyl)-4H-chromene-2-carboxamide]
inhibition at 50 µM [1]: 39.1 ± 5.4%

CCc1ccc(NC(=O)c2cc(=O)c3ccccc3o2)cc1 [3c, N-(4-Ethylphenyl)-4-oxo-4H-chromene-2-carboxamide]
inhibition at 50 µM [1]: 43.3 ± 7.2% | melting point: 179 °C

CCCc1ccc(NC(=O)c2cc(=O)c3ccccc3o2)cc1 [3d, 4-Oxo-N-(4-propylphenyl)-4H-chromene-2-carboxamide]
inhibition at 50 µM [1]: 55.6 ± 18.3% | melting point: 173 °C

O=C(Nc1ccc(F)cc1)c1cc(=O)c2ccccc2o1 [3e, N-(4-Fluorophenyl)-4-oxo-4H-chromene-2-carboxamide]
inhibition at 50 µM [1]: 73.3 ± 11% | melting point: 211 °C

O=C(Nc1ccc(Cl)cc1)c1cc(=O)c2ccccc2o1 [3f, N-(4-Chlorophenyl)-4-oxo-4H-chromene-2-carboxamide]
inhibition at 50 µM [1]: 25.9 ± 4.3% | melting point: 265 °C

O=C(Nc1ccc(Br)cc1)c1cc(=O)c2ccccc2o1 [3g, N-(4-Bromophenyl)-4-oxo-4H-chromene-2-carboxamide]
inhibition at 50 µM [1]: 47.2 ± 2.8%

O=C(Nc1ccccc1F)c1cc(=O)c2ccccc2o1 [3h, N-(2-Fluorophenyl)-4-oxo-4H-chromene-2-carboxamide]
inhibition at 50 µM [1]: 42.4 ± 10.4% | melting point: 225 °C

O=C(Nc1ccccc1Cl)c1cc(=O)c2ccccc2o1 [3i, N-(2-Chlorophenyl)-4-oxo-4H-chromene-2-carboxamide]
inhibition at 50 µM [1]: 35.2 ± 14.8% | melting point: 181 °C

O=C(Nc1ccccc1Br)c1cc(=O)c2ccccc2o1 [3j, N-(2-Bromophenyl)-4-oxo-4H-chromene-2-carboxamide]
inhibition at 50 µM [1]: 46.1 ± 10.2% | melting point: 195 °C

O=C(Nc1ccc(F)cc1Cl)c1cc(=O)c2ccccc2o1 [3k, N-(2-Chloro-4-fluorophenyl)-4-oxo-4H-chromene-2-carboxamide]
inhibition at 50 µM [1]: 44.7 ± 9.4% | melting point: 229 °C

O=C(Nc1ccc(F)c(Cl)c1)c1cc(=O)c2ccccc2o1 [3l, N-(3-Chloro-4-fluorophenyl)-4-oxo-4H-chromene-2-carboxamide]
inhibition at 50 µM [1]: < 10% | melting point: 291 °C

O=C(Nc1ccc([N+](=O)[O-])cc1)c1cc(=O)c2ccccc2o1 [3m, N-(4-Nitrophenyl)-4-oxo-4H-chromene-2-carboxamide]
inhibition at 50 µM [1]: 58.7 ± 2.5% | melting point: 307 °C

O=C(Nc1ccc([N+](=O)[O-])cc1[N+](=O)[O-])c1cc(=O)c2ccccc2o1 [3n, N-(2,4-Dinitrophenyl)-4-oxo-4H-chromene-2-carboxamide]
inhibition at 50 µM [1]: < 10% | melting point: 330 °C

O=C(Nc1cc([N+](=O)[O-])cc([N+](=O)[O-])c1)c1cc(=O)c2ccccc2o1 [3o, N-(3,5-Dinitrophenyl)-4-oxo-4H-chromene-2-carboxamide]
inhibition at 50 µM [1]: 43.8 ± 24.2% | melting point: 312 °C

COc1ccc(NC(=O)c2cc(=O)c3ccccc3o2)cc1 [3p, N-(4-Methoxyphenyl)-4-oxo-4H-chromene-2-carboxamide]
inhibition at 50 µM [1]: 47.5 ± 5.3%

COc1ccccc1NC(=O)c1cc(=O)c2ccccc2o1 [3q, N-(2-Methoxyphenyl)-4-oxo-4H-chromene-2-carboxamide]
inhibition at 50 µM [1]: 41.3 ± 5.7% | melting point: 199 °C

CSc1ccccc1NC(=O)c1cc(=O)c2ccccc2o1 [3r, N-(2-(Methylthio)phenyl)-4-oxo-4H-chromene-2-carboxamide]
inhibition at 50 µM [1]: 47.8 ± 5.7% | melting point: 163 °C

COc1ccc(NC(=O)c2cc(=O)c3ccccc3o2)cc1OC [3s, N-(3,4-Dimethoxyphenyl)-4-oxo-4H-chromene-2-carboxamide]
inhibition at 50 µM [1]: < 10% | melting point: 229 °C

COc1cc(NC(=O)c2cc(=O)c3ccccc3o2)cc(OC)c1 [3t, N-(3,5-Dimethoxyphenyl)-4-oxo-4H-chromene-2-carboxamide]
inhibition at 50 µM [1]: < 10% | melting point: 211 °C

O=C(Nc1ccc(N2CCOCC2)cc1)c1cc(=O)c2ccccc2o1 [3u, N-(4-Morpholinophenyl)-4-oxo-4H-chromene-2-carboxamide]
inhibition at 50 µM [1]: 51.2 ± 11.7% | melting point: 288 °C

O=C(Nc1ncccn1)c1cc(=O)c2ccccc2o1 [3v, 4-Oxo-N-(pyrimidin-2-yl)-4H-chromene-2-carboxamide]
inhibition at 50 µM [1]: 46 ± 7.3% | melting point: 189 °C

CCCNC(=O)c1cc(=O)c2ccccc2o1 [3w, 4-Oxo-N-propyl-4H-chromene-2-carboxamide]
inhibition at 50 µM [1]: < 10% | melting point: 166 °C

O=C(NC1CCCCC1)c1cc(=O)c2ccccc2o1 [3x, N-Cyclohexyl-4-oxo-4H-chromene-2-carboxamide]
inhibition at 50 µM [1]: 32 ± 10.3% | melting point: 179 °C

O=C(NC12CC3CC(CC(C3)C1)C2)c1cc(=O)c2ccccc2o1 [3y, N-((3S,5S,7S)-Adamantan-1-yl)-4-oxo-4H-chromene-2-carboxamide]
inhibition at 50 µM [1]: 24.4 ± 8.8% | melting point: 201 °C

CCc1cccc(NC(=O)c2cc(=O)c3ccccc3o2)c1 [3′a, N-(3-Ethylphenyl)-4-oxo-4H-chromene-2-carboxamide]
inhibition at 50 µM [1]: 70.5 ± 5.6% | melting point: 168 °C

CCN(CC)Cc1cc(NC(=O)c2cc(=O)c3ccccc3o2)ccc1O [3′b]
Biofilm Inhibition (%) ([1]; 50 µM): 35.5 ± 5.8%

CCN(CC)Cc1cc(NC(=O)c2cc(=O)c3ccccc3o2)ccc1O [3′c, N-(3-((Diethylamino)methyl)-4-hydroxyphenyl)-4-oxo-4H-chromene-2-carboxamide]
inhibition at 50 µM [1]: 39.7 ± 4.5% | melting point: 186 °C

O=C(Nc1ccc(Cn2ccnc2)cc1)c1cc(=O)c2ccccc2o1 [3′d, N-(4-((1H-Imidazol-1-yl)methyl)phenyl)-4-oxo-4H-chromene-2-carboxamide]
inhibition at 50 µM [1]: < 10% | melting point: 261 °C

CC(C)(C)OC(=O)N1CCC(CNC(=O)c2cc(=O)c3ccccc3o2)CC1 [3′e, Tert-butyl 4-((4-oxo-4H-chromene-2-carboxamido)methyl)piperidine-1-carboxylate]
inhibition at 50 µM [1]: 36 ± 28.6% | melting point: 129 °C

O=C(NCCCn1ccnc1)c1cc(=O)c2ccccc2o1 [3′f, N-(3-(1H-Imidazol-1-yl)propyl)-4-oxo-4H-chromene-2-carboxamide]
inhibition at 50 µM [1]: < 10% | melting point: 171 °C

CCN(CC)CCCC(C)NC(=O)c1cc(=O)c2ccccc2o1 (centres unmarked) [3′g, N-(5-(Diethylamino)pentan-2-yl)-4-oxo-4H-chromene-2-carboxamide]
inhibition at 50 µM [1]: 14.7 ± 2.1% | melting point: 110 °C

O=C(CN1CCN(C(=O)c2cc(=O)c3ccccc3o2)CC1)N1CCCC1 [3′i, 2-(4-(2-Oxo-2-(pyrrolidin-1-yl)ethyl)piperazine-1-carbonyl)-4H-chromen-4-one]
inhibition at 50 µM [1]: 10.8 ± 0.4% | melting point: 117 °C

O=C(Nc1cc(=O)c2ccccc2o1)c1ccccc1 [6a, N-(4-Oxo-4H-chromen-2-yl) benzamide]
inhibition at 50 µM [1]: 73.6 ± 6.1% | melting point: 218 °C

Cc1ccc(C(=O)Nc2cc(=O)c3ccccc3o2)cc1 [6b, 4-Methyl-N-(4-oxo-4H-chromen-2-yl) benzamide]
inhibition at 50 µM [1]: 67 ± 3.6% | melting point: 240 °C

CCc1ccc(C(=O)Nc2cc(=O)c3ccccc3o2)cc1 [6c, 4-Ethyl-N-(4-oxo-4H-chromen-2-yl) benzamide]
inhibition at 50 µM [1]: 63.1 ± 3% | melting point: 237 °C

CCCc1ccc(C(=O)Nc2cc(=O)c3ccccc3o2)cc1 [6d, N-(4-Oxo-4H-chromen-2-yl)-4-propylbenzamide]
inhibition at 50 µM [1]: 69.9 ± 9.7% | melting point: 229 °C

O=C(Nc1cc(=O)c2ccccc2o1)c1ccc(F)cc1 [6e, 4-Fluoro-N-(4-oxo-4H-chromen-2-yl) benzamide]
inhibition at 50 µM [1]: 65.3 ± 7.6% | melting point: 251 °C

O=C(Nc1cc(=O)c2ccccc2o1)c1ccc(Cl)cc1 [6f, 4-Chloro-N-(4-oxo-4H-chromen-2-yl) benzamide]
inhibition at 50 µM [1]: 66.6 ± 2.1% | melting point: 296 °C
